Source: the SangsterLogP compilation

Assay: method code SF-AS, from Mayer, M.; Testa, B.; Van, H.; Bornand-Crausaz, A. (1982). Non-additivity amd intramolecular effects in the partition coefficient of omega-functionalized alkylpyridines. Eur J Med Chem, 17(5)453-459.

Row | SMILES | logP
1 | NC(=O)CCc1ccncc1 | -0.25
2 | NCCc1cccnc1 | 0
3 | NCCc1ccccn1 | 0.08
4 | NCCCCCc1cccnc1 | 1.41
5 | OCCc1ccncc1 | 0.1
6 | NC(=O)CCc1cccnc1 | -0.26
7 | NCCCc1cccnc1 | 0.44
8 | NCCCc1ccncc1 | 0.4
9 | NCc1ccncc1 | -0.38
10 | NCCc1ccncc1 | -0.01
11 | OCCc1cccnc1 | 0.12
12 | NCCCc1ccccc1 | 1.83
13 | NCCCCc1ccncc1 | 0.86
14 | NCCCCc1cccnc1 | 0.88
15 | OCc1cccnc1 | -0.02

Other lines, results leading:

Row | logP | SMILES
16 | 0.6 | OCCCc1cccnc1
17 | 0.58 | OCCCc1ccccn1
18 | 1.41 | OCCCCCc1cccnc1
19 | 0.06 | OCc1ccccn1
20 | 0.92 | OCCCCc1cccnc1
21 | 1.4 | NCCCCCc1ccncc1
22 | 1.33 | OCCCCCc1ccncc1
23 | -0.27 | NC(=O)CCc1ccccn1
24 | 0.86 | NCCCCc1ccccn1
25 | 0.4 | NC(=O)CCCCc1cccnc1
26 | 0.9 | OCCCCc1ccncc1
27 | 0.58 | OCCCc1ccncc1
28 | 0.86 | OCCCCc1ccccn1
29 | 1.32 | NCCCCCc1ccccn1
30 | -0.21 | NCc1ccccn1
31 | 0.42 | NC(=O)CCCCc1ccncc1
32 | 0.12 | OCCc1ccccn1
33 | 1.28 | OCCCCCc1ccccn1
34 | 0.49 | NCCCc1ccccn1
